According to paper PMC7557402, “Evaluation of Nucleoside Analogs as Antimicrobials Targeting Unique Enzymes in Borrelia burgdorferi” (Pathogens, 2020):
pIC50, pKi: −log10 of the molar value.

Assays:
[1] = target: Bgp (Borreliella burgdorferi, UniProt Q9F952); test: MTAN inhibition constants (competitive inhibition of MTA hydrolysis); assay type: biochemical, Borrelia burgdorferi; details: MTA 100 µM, inhibitor 0 to 100 µM, read-out: Ki (inhibition constant)
Procedure: (§1) The inhibited velocity (Vo’) and uninhibited velocity (Vo) values were determined, and the ratio of Vo’/Vo plotted as a function of inhibitor concentration. Ki values were calculated from these plots by fitting the data to the equation for competitive inhibition using GraphPad Prism:(2) Vo^′/Vo=Km+[S]/Km+[S]+(Km[I]/Ki)

[2] = tested on: Borrelia MTANs (Bgp, MtnN, Pfs); test: MTAN activity/kinetics, across the nucleosidases; assay type: biochemical; details: range over the B. burgdorferi nucleosidases
Procedure: Enzyme specific activities were determined using previously reported optimal pH conditions (50 mM sodium phosphate, pH = 7, for Bgp, MtnN; 50 mM sodium phosphate-citrate, pH = 5, for Pfs) and a spectrophotometric activity assay that measures the decrease in UV absorbance at 275 nm that occurs when MTA is cleaved to 5-methylthioribose and adenine (ε275 = 1.6 mM^−1cm^−1). The extinction coefficients for cleavage of other nucleosides were experimentally validated and found to be the same for MSeA, FSBA, and IADO (ε275 = 1.6 mM^−1cm^−1). Due to the added UV absorbance imparted by the 5′ purine group found in PurTA, the enzyme reactions were followed spectrophotometrically at 260 nm using the experimentally determined extinction coefficient of ε260 = 5.6 mM^−1cm^−1. Enzyme specific activities for MTA were generally 1–2 U/mg (1 U = µmol MTA hydrolyzed/min). The enzyme specific activities for other nucleosides were determined and reported in U/mg and as the % max specific activity (relative to MTA at 100%).
Kinetic constants have been previously reported for MTA [18]. As MSeA was also an efficient substrate for the B. burgdorferi nucleosidases, kinetic constants were determined using the activity assay described above, varying the nucleoside concentrations from 1 to 20 µM, and fitting the data on substrate-velocity plots to the Michaelis–Menten equation using GraphPad Prism (version 6):(1) Vo=Vmax[S]/Km+[S]
as §1, with “For the other compounds, inhibition constants (Ki’s) were determined as previously described, using an MTA concentration of 100 µM and varying the inhibitor concentration from 0 to 100 µM. The” for “The”

[3] = tested on: B. burgdorferi strain N40; test: microbe, parasite or virus in culture; assay type: cell-based, Borrelia burgdorferi; details: Borreliella burgdorferi, N40; bioluminescence; stated after the 72 h results, time not given explicitly; read-out: IC50 (loss of B. burgdorferi vitality)
Procedure: B. burgdorferi N40 strain carrying a firefly luciferase gene (Bbluc), which is a derivative of the N40D10/E9 clone, was used in this study and is labeled as N40 throughout. N40 was cultured at 33 °C in Barbour-Stoenner-Kelly-II (BSK-II) medium supplemented with 6% rabbit serum (BSKII-RS). Bacterial counts were determined under 400× magnification using a hemocytometer and a dark field microscope.
The luciferase expressing B. burgdorferi N40 strain was grown to a density of ~10^8 spirochetes/mL and divided into two aliquots. One aliquot was incubated at 60 °C for 30 min to kill the spirochetes. […] The culture was mixed with the substrate by shaking in the dark, incubated at 37 °C for 5 min in a Spectramax M2 microplate reader (Molecular Devices, San Jose, CA, USA) and the bioluminescence measured. […]
Nucleosides and nucleoside analogs were prepared as sterile 1 mM stock solutions in distilled water (MSeA, IADO, FSBA, and dEt-ImmA) or in DMSO (PurTA). […] Photon emission due to luciferase activity was measured at three time points, after: (a) 24 h, (b) 72 h, and (c) 7 days of treatments to observe the effect of inhibitors on B. burgdorferi culture. At the end of each time point, bioluminescence was measured as described above. […]

Chain of Bgp (Q9F952 entry or part of it): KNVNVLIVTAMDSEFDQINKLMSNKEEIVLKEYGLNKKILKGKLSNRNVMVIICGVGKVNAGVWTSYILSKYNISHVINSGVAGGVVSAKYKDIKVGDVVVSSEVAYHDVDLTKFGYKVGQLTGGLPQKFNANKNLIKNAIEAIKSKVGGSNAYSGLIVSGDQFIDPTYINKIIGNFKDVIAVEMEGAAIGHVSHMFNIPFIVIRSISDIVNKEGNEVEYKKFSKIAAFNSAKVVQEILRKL

Nc1ncnc2c1ncn2[C@@H]1O[C@H](CI)[C@@H](O)[C@H]1O [IADO, 5′-deoxy-5′-iodoadenosine]
pKi [1]: 6.20 | activity relative to that found for MTA [2]: 3–6% | pIC50 [3]: ~6.00
